Results published in patent publication US20250114286A1, “METHOD FOR STABILIZING CERAMIDE AND COSMETIC COMPOSITION COMPRISING STABILIZED CERAMIDE” (COSMECCA KOREA Co., Ltd., priority 2023, published 2025).

What was measured:
[1] = DPPH radical scavenging activity test; assay type: biochemical; conditions: positive control at 0.01%
Description: In order to confirm the anti-oxidation efficacy of ceramide and bioactive material-containing nanoparticle capsules, a DPPH radical scavenging activity test was conducted. The DPPH radical scavenging activity was measured by the reducing power of the sample relative to the DPPH radical. A 0.4 mM solution was prepared by dissolving DPPH (1,1-Diphenyl-2-picrylhydrazyl) reagent in ethanol. Then 100 μL of the solution of each sample corresponding to Example 1, Comparative Examples 1, and 2, or positive control BHT (Butylated hydroxyl toluene or 2,6-Di-tert-butyl-p-cresol) was dissolved in ethanol, was added to 100 μL of the 0.4 mM DPPH solution in a 96 well plate and mixed. At this time, ethanol was treated as a negative control, and after mixing, the mixture reacted at 37° C. for 30 minutes. Absorbance was measured at 517 nm using ELISA reader, and the DPPH radical scavenging ability (%) of the sample or BHT as a positive control was calculated using the following formula.
DPPH radical scavenging ability (%)={1−(absorbance of positive control or sample/absorbance of control)}×100

[2] = system: AQP3; experiment: Moisturizing efficacy: AQP3 mRNA expression by qRT-PCR in UVB-irradiated HDFa cells; assay type: cell-based, Human; conditions: UVB 15 mJ/cm^2, positive control at 0.01%
Description: In order to confirm the moisturizing efficacy of ceramide and bioactive substance-containing nanoparticle capsule, the effect on AQP3 expression was evaluated. After inoculating Human dermal fibroblast (HDFa) cell lines, they were cultured at 37° C. for 24 hours under 5% CO2 in Fibroblast Basal Medium (Medium 106) containing 100 IU/mL penicillin and 100 μg/mL streptomycin. The medium of each well was removed and replaced with fresh serum-free medium. Each well was subjected to pretreatment for 4 hours by administering the samples corresponding to Example 1 and Comparative Examples 1 and 2 at each concentration. 15 mJ/cm^2 UVB was irradiated to each well plate by a UVB irradiation device (vilber loumet, France). The sample was treated with the diluted serum-free medium, and then further cultured for 24 hours. At this time, a negative control was treated with PBS, and a positive control was treated with Hyaluronic acid at 0.01%. After the cell culture was completed, the cells were lysed using Ribo Ex™ Total RNA Isolation Solution (GeneAll Biotechnology, Korea) and scraper, and then 0.2 mL chloroform (Sigma-Aldrich, USA) was added thereto to perform centrifugation (12,000 rpm, 4° C., 30 minutes). […]

| Compound | DPPH radical scavenging ability (%) [1] | Relative AQP3 expression (% of control) [2] |
| --- | --- | --- |
| Cc1cc(C(C)(C)C)c(O)c(C(C)(C)C)c1 [BHT, 2,6-Di-tert-butyl-p-cresol] | 62.08% |  |
| Hyaluronic acid |  | 149.52 % of control |
